According to the supplement of paper PMC10307832:

Legend:
Assay in all cases: relative viability (nuclei count vs DMSO), 5 days (fraction); higher = more cells survive
Pazopanib = compound: Cc1ccc(Nc2nccc(N(C)c3ccc4c(C)n(C)nc4c3)n2)cc1S(N)(=O)=O [Pazopanib]
Method in brief: (§1)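 Cells of lung cancer lines were placed in 1536-well plates and kept overnight at 37 °C. Pinning then delivered five library-drug doses (not always all listed), spaced by √10, onto plates anchored with vehicle, and the cells were left 5 days without changing medium. One step fixed, permeabilised and stained them with Hoechst, and MetaXpress counted nuclei in 4× images. Viability, as a median over plates, is treated-well nuclei divided by vehicle-well nuclei, with acceptance only at control CV below 25% and at least one doubling.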

Ponatinib = compound: Cc1ccc(C(=O)Nc2ccc(CN3CCN(C)CC3)c(C(F)(F)F)c2)cc1C#Cc1cnc2cccnn12 [Ponatinib]
Method in brief: as §1

Pazopanib + Pemetrexed = compound: Cc1ccc(Nc2nccc(N(C)c3ccc4c(C)n(C)nc4c3)n2)cc1S(N)(=O)=O [Pazopanib] + Nc1nc2[nH]cc(CCc3ccc(C(=O)N[C@@H](CCC(=O)O)C(=O)O)cc3)c2c(=O)[nH]1 [Pemetrexed] (partner 0.2 µM)
Method in brief: (§2)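 Nuclei were stained with Hoechst during a one-step fixation (final 0.05% Triton X-100, 1% formaldehyde, 1 ug/ml Hoechst) carried out 5 days after dosing, then counted on 4× images. The cells, lung cancer lines in 1536-well plates, had been dosed by pin tool the day after seeding with one drug alone or a fixed anchor-drug dose plus five library-drug doses (not always all listed) in √10 steps. Relative viability is the nuclei count in treated wells divided by that in vehicle wells, and each value is the median of duplicate plates.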

Ponatinib + OSI-027 = compound: Cc1ccc(C(=O)Nc2ccc(CN3CCN(C)CC3)c(C(F)(F)F)c2)cc1C#Cc1cnc2cccnn12 [Ponatinib] + COc1cccc2cc(-c3nc([C@H]4CC[C@H](C(=O)O)CC4)n4ncnc(N)c34)[nH]c12 [OSI-027] (partner 0.5 µM)
Method in brief: as §2

| Cell Line | relative viability (Pazopanib; 0.01 µM) | relative viability (Pazopanib; 0.03162 µM) | relative viability (Pazopanib; 0.1 µM) | relative viability (Pazopanib; 0.3162 µM) | relative viability (Pazopanib; 1 µM) | relative viability (Ponatinib; 0.002 µM) | relative viability (Ponatinib; 0.006325 µM) | relative viability (Ponatinib; 0.06325 µM) | relative viability (Ponatinib; 0.2 µM) | relative viability (Pazopanib + Pemetrexed; first compound 0.01 µM) | relative viability (Pazopanib + Pemetrexed; first compound 0.03162 µM) | relative viability (Pazopanib + Pemetrexed; first compound 0.1 µM) | relative viability (Pazopanib + Pemetrexed; first compound 0.3162 µM) | relative viability (Pazopanib + Pemetrexed; first compound 1 µM) | relative viability (Ponatinib + OSI-027; first compound 0.002 µM) | relative viability (Ponatinib + OSI-027; first compound 0.006325 µM) | relative viability (Ponatinib + OSI-027; first compound 0.06325 µM) | relative viability (Ponatinib + OSI-027; first compound 0.2 µM) |
| --- | --- | --- | --- | --- | --- | --- | --- | --- | --- | --- | --- | --- | --- | --- | --- | --- | --- | --- |
| 201T | 0.937 | 0.919 | 0.979 | 1.06 | 0.932 | 0.928 | 0.986 | 1.07 | 0.963 | 0.369 | 0.331 | 0.318 | 0.333 | 0.323 | 0.622 | 0.724 | 0.796 | 0.711 |
| A549 | 0.935 | 0.99 | 1.04 | 1.01 | 1.17 | 0.809 | 0.975 | 1.02 | 0.917 | – | – | – | – | – | – | – | – | – |
| A-427 | 0.863 | 1.12 | 0.885 | 1 | 1.14 | 0.928 | 1.05 | 0.958 | 0.81 | 0.942 | 1.04 | 0.934 | 1.05 | 1.05 | 0.49 | 0.429 | 0.396 | 0.215 |
| ABC-1 | 0.798 | 0.89 | – | 1.08 | 0.974 | 0.865 | 0.852 | 0.96 | 0.751 | – | – | – | – | – | 0.394 | 0.513 | 0.47 | 0.393 |
| BEN | 0.729 | 1.1 | 0.929 | 1.05 | 1.05 | 0.765 | 0.967 | 1.01 | 0.847 | 0.67 | 0.803 | 0.706 | 0.8 | 0.834 | 0.3 | 0.305 | 0.312 | 0.332 |
| CAL-12T | 1.15 | 0.99 | 0.986 | 1.02 | 1.13 | 0.929 | 0.951 | 1.15 | 0.97 | 1.13 | 1.3 | 1.37 | 1.08 | 1.26 | 0.571 | 0.523 | 0.568 | 0.418 |
| COR-L23 | 1.13 | 1 | 1.04 | 1.09 | 1.04 | 0.887 | 0.941 | 0.97 | 0.876 | 0.177 | 0.182 | 0.207 | 0.204 | 0.203 | 0.707 | 0.73 | 0.766 | 0.604 |
| COR-L 105 | 1.08 | 0.91 | 0.95 | 1.1 | 1.14 | 1.01 | 0.933 | 1.18 | 1.05 | 1.07 | 1.24 | 1.19 | 1.21 | 1.21 | 0.638 | 0.807 | 1.03 | 0.744 |
| Calu-6 | 0.99 | 1.07 | 1.04 | 1.01 | 0.974 | 0.987 | 0.967 | 1.02 | 0.905 | – | – | – | – | – | – | – | – | – |
| ChaGo-K-1 | 0.927 | 1.01 | 1.04 | 0.99 | 0.978 | 0.872 | 0.988 | 1 | 0.88 | 0.267 | 0.256 | 0.268 | 0.257 | 0.252 | 0.465 | 0.594 | 0.571 | 0.493 |
| EBC-1 | 1.01 | 1.05 | 0.978 | 0.956 | 1.09 | 0.926 | 1.05 | 1.16 | 0.924 | – | – | – | – | – | – | – | – | – |
| EKVX | 0.902 | 0.989 | 0.964 | 1.06 | 1.03 | 0.899 | 1.06 | 1.24 | 1.06 | 0.37 | 0.403 | 0.377 | 0.35 | 0.361 | 0.66 | 0.729 | 0.829 | 0.706 |
| EMC-BAC-2 | – | 0.977 | 0.93 | 1.03 | 1.04 | 0.821 | 0.973 | 1.04 | 0.822 | – | 0.456 | 0.384 | 0.434 | 0.425 | 0.368 | 0.376 | 0.39 | 0.368 |
| EPLC-272H | 0.706 | 0.919 | 0.962 | 1.07 | 0.92 | 0.818 | 1.01 | 1.14 | 0.801 | 0.313 | 0.461 | 0.318 | 0.332 | 0.353 | 0.283 | 0.278 | 0.299 | 0.268 |
| H3255 | 0.925 | 0.965 | 0.869 | 0.998 | 1.01 | 0.867 | 0.97 | 0.984 | 0.908 | 0.549 | 0.585 | 0.581 | 0.569 | 0.583 | 0.666 | 0.566 | 0.613 | 0.526 |
| HARA | 0.957 | 0.978 | 1 | 1.04 | 1.03 | 0.844 | 0.972 | 0.938 | 0.914 | 0.245 | 0.244 | 0.242 | 0.207 | 0.237 | 0.435 | 0.497 | 0.476 | 0.393 |
| HCC-15 | 0.837 | 0.987 | 1.02 | 1.06 | 1.03 | 0.972 | 1.06 | 1.1 | 1.02 | 0.215 | 0.226 | 0.223 | 0.209 | 0.231 | 0.643 | 0.677 | 0.843 | 0.599 |
| HCC-44 | 0.886 | 0.929 | 0.998 | 0.983 | 1.02 | 0.908 | 0.929 | 0.942 | 0.958 | 0.697 | 0.637 | 0.605 | 0.62 | 0.616 | 0.482 | 0.413 | 0.402 | 0.408 |
| HCC-78 | 0.743 | 1 | 0.889 | 0.933 | 0.936 | 0.8 | 0.994 | 1.03 | 0.874 | – | 0.934 | 0.899 | 0.839 | 0.927 | 0.332 | 0.418 | 0.366 | 0.528 |
